Test results taken from ChEMBL document CHEMBL1131976, “Syntheses of novel antitumor dihydroxanthone derivatives with inhibitory activity against DNA topoisomerase II” (Bioorg Med Chem Lett, 1999).

Tests used:
HCT-116 [1] = test: In vitro cytotoxic activity against human cancer cell line HCT116 by using MTT assay; type: functional, cell-based
K562 = test: In vitro cytotoxic activity against human cancer cell line K562 by using MTT assay; type: functional, cell-based
P388 = test: In vitro cytotoxic activity against murine cancer cell line P388 by using MTT assay; type: functional, cell-based; settings: Mus musculus
DNA topoisomerase 2 = molecular target: T1, DNA topoisomerase 2 (Drosophila melanogaster, UniProt P15348); test: In vitro inhibitory activity against topoisomerase II (Topo II) by using decatenation assay
T1 sequence (P15348 whole entry): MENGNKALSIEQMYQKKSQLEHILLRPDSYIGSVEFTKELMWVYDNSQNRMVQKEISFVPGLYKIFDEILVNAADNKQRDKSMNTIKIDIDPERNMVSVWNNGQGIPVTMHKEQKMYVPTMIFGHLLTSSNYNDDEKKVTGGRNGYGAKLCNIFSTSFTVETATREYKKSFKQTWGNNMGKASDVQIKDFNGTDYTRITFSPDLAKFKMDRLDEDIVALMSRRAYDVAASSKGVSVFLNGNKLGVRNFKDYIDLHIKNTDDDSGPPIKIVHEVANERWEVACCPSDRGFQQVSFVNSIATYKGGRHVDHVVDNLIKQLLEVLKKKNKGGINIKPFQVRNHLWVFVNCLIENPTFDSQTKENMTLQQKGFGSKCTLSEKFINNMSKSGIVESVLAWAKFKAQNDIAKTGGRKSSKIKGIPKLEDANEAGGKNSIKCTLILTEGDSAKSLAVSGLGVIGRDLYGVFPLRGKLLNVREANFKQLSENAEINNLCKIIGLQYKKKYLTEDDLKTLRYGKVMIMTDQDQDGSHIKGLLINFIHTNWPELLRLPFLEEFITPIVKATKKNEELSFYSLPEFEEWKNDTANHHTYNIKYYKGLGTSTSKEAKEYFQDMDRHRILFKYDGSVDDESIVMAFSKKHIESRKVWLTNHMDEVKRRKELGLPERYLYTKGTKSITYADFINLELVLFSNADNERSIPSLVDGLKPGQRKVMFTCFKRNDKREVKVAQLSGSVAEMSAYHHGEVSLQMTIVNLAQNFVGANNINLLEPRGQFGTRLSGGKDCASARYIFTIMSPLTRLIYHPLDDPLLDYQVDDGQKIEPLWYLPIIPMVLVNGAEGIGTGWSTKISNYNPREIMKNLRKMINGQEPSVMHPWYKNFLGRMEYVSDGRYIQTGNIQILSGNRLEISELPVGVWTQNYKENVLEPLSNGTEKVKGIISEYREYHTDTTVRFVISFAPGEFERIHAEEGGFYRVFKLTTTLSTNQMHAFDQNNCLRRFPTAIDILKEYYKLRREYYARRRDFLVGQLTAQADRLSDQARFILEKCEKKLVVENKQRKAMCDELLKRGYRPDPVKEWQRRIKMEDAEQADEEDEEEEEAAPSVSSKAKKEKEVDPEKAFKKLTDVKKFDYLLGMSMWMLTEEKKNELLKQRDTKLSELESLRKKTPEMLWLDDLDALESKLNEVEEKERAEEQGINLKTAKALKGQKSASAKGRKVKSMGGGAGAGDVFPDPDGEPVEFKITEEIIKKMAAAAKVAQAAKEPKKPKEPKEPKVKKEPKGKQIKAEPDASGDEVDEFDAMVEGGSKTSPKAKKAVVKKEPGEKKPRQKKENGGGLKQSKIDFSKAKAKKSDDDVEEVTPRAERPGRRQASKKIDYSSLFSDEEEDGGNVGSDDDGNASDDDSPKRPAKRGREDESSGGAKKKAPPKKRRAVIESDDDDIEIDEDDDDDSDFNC

DNA topoisomerase 1 = molecular target: T2, DNA topoisomerase 1 (Mus musculus, UniProt Q04750); test: In vitro inhibitory activity against topoisomerase I (Topo I) by using relaxation assay
T2 sequence (Q04750 whole entry): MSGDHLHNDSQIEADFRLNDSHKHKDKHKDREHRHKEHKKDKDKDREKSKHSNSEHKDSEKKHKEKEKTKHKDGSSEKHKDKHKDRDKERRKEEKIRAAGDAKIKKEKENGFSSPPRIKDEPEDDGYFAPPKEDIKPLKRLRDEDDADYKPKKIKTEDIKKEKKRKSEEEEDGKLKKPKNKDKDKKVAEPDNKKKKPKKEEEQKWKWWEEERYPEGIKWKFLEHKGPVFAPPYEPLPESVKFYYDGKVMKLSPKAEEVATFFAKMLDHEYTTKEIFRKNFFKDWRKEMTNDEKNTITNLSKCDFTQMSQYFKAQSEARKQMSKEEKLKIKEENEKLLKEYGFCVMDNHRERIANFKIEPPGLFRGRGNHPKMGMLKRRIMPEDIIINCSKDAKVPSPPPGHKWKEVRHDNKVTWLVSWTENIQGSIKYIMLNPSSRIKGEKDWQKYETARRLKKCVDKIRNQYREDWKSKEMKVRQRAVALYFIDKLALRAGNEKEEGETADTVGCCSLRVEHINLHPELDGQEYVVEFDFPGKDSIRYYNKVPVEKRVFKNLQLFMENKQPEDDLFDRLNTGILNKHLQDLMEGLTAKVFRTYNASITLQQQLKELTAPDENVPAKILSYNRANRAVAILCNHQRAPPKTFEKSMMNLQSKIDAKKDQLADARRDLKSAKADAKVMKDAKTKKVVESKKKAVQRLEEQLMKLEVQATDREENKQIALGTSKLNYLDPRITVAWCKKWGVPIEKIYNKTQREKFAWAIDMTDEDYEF

Mus musculus [2] = test: In vivo antitumor activity against Colon 26 murine tumor model at a dose of 10 mg/kg administered intravenously; type: functional; settings: route intravenous
Mus musculus [3] = test: In vivo antitumor activity against Colon 26 murine tumor model at a dose of 20 mg/kg administered intravenously; type: functional; settings: route intravenous
HCT-116 [4] = test: In vitro cytotoxic activity against HCT116 human cancer cell line at 40 uM; IA means Inactive; type: functional, cell-based

| Compound | IC50 (HCT-116 [1]) [nM] | IC50 (K562) [nM] | IC50 (P388) [nM] | IC50 (DNA topoisomerase 2) [nM] | IC50 (DNA topoisomerase 1) [nM] | Activity (Mus musculus [2]) [%] | Activity (Mus musculus [3]) [%] | IC50 (HCT-116 [4]) |
| --- | --- | --- | --- | --- | --- | --- | --- | --- |
| Cc1cc(O)c2c(c1)O[C@@]1(C(=O)N(C)C)C(=CC=C[C@H]1O)C2=O | 790 | 980 | 150 | – | – | – | – | – |
| Cc1cc(O)c2c(c1)O[C@@]13C(=O)N(C)[C@@H](CC=C1C2=O)[C@H]3O | 19600 | 6310 | – | > 300000 | > 300000 | – | – | – |
| Cc1cc(O)c2c(c1)O[C@@]1(C(N)=O)C(=CC=C[C@H]1O)C2=O | 330 | 590 | 52 | 29000 | 63000 | 42 | – | – |
| Cc1cc(O)c2c(c1)O[C@@]1(C(=O)N3CCCC3)C(=CC=C[C@H]1O)C2=O | 1640 | 1520 | 560 | – | – | – | – | – |
| Cc1cc(O)c2c(c1)O[C@@]1(C(=O)NCCO)C(=CC=C[C@H]1O)C2=O | 7880 | 10600 | 2670 | 23000 | 102000 | – | – | – |
| COC(=O)[C@]12Oc3cc(C)cc(O)c3C(=O)C1=CC=C[C@H]2O | 140 | 320 | 24 | 2200 | 172000 | – | 24 | – |
| Cc1cc(O)c2c(=O)c3ccccc3oc2c1 | – | – | – | – | – | – | – | Not Active |
| CNC(=O)[C@]12Oc3cc(C)cc(O)c3C(=O)C1=CC=C[C@H]2O | 1130 | 2260 | 240 | 132000 | > 300000 | – | – | – |
